Patent US11253495B2, “Pharmaceutical composition for treating excessive lactate production and acidemia” (priority 2018, dated 2022)

Legend:
[1] = tested on: focal cerebral ischemia rat model; test: Focal cerebral ischemia rat model (3 h MCA occlusion, 21 h reperfusion): behavioral deficit, infarct size, serum lactate, brain ATP; assay type: in vivo; settings: FIG. 10; 24 hours after ischemia; vs G1 saline; combination vs single agent
Method: 180-230 g CD rats were used. Ketamine/xylazine 30 mg/kg ip was given for anesthesia in each rat. A midline incision on the neck was made. The left common carotid artery, the external carotid artery (ECA) and the internal carotid artery (ICA) were exposed. The ECA was ligated and severed. Focal cerebral ischemia was produced by a 3.0 nylon suture that was advanced from the ECA to ICA to block the origin of left middle cerebral artery. The nylon suture was left in place to induce focal cerebral ischemia on left hemisphere supplied by middle cerebral artery. The ischemia lasted for 3 hours, the nylon suture was then removed to allow blood reperfusion for 21 hours.
This treatment time point is one hour before restoring blood flow (reperfusion).
At 24 hours after cerebral ischemia, each rat was evaluated for behavioral deficits. A score of 0-4 was used to assess the motor and behavioral changes. Score 0: No apparent deficits, Score 1: Contralateral forelimb flexion, Score 2: Decreased grip of the contralateral forelimb when the tail is pulled, Score 3: Spontaneous movement in all directions; contralateral circling only if pulled by tail and Score 4: Spontaneous contralateral circling.
At 24 hours after ischemia, blood samples were collected, serum lactate, was measured using blood chemistry analyzer. LDH was measured using colorimetric method.
After blood samples collection, each rat was euthanized. The brain was excised. A small piece of the cortex in ischemic core was obtained, weighed and then homogenized at 0° C. The ATP content was evaluated using ATP content measurement using luciferase-luciferin luminescence detection assay.
Each brain was immediately cut into 6 coronal sections (1 mm in thickness) and stained with 1% 2,3,5-triphenyltetrazolium chloride (TTC) in PBS solution at 37° C. for 10 minutes. The infarct size was identified as the non-TTC-stained area, the infarction percentage (%) was calculated by the ratio of area of infarction size to area of whole brain.

phenformin intoxication = test: Phenformin intoxication and severe lactate acidemia in mice: survival time, serum lactate, serum pH; assay type: in vivo, CD-1 mice; settings: doses of Table 4, vs G1 saline; for Serum lactate at 1 hour after phenformin intoxication: FIG. 14, combination vs single agent; for Serum pH value at 1 hour after phenformin intoxication: FIG. 15
Method: CD-1 mice (20-25 gram) were used. All mice were pre-treated according to the Table 4.
10 minutes after treatment, intoxication of severe lactate acidemia was induced by injecting phenformin chloride (concentration 20 mg/ml) at dose of 200 mg/kg intraperitoneally. At 1 hour after phenformin injection, serum lactate and pH were measured.

cardiac arrest rat model = test: Cardiac arrest rat model with CPR: mortality, brain death score, serum lactate and pH, organ ATP; assay type: in vivo; settings: for Serum lactate: FIG. 2, 24 hours after ROSC or right before death, vs G1 saline, combination vs single agent; for Mortality at 24 hours after ROSC: rats, 7 min cardiac arrest, iv treatment 10 minutes after ROSC, doses of Table 1, n=8 each group

| SMILES | Serum lactate content [1] | Serum lactate at 1 hour after phenformin intoxication (phenformin intoxication) | Serum lactate (cardiac arrest rat model) | Serum pH value at 1 hour after phenformin intoxication (phenformin intoxication) | Mortality at 24 hours after ROSC (cardiac arrest rat model) |
| --- | --- | --- | --- | --- | --- |
| O=C([O-])CC(=O)C(=O)O.[Na+] [oxaloacetate, Sodium oxaloacetate] | reduce lactate production | reduce lactate production | reduce lactate production | – | – |
| N[C@@H](CCC(=O)[O-])C(=O)[O-].[Na+].[Na+] [Sodium glutamate] | reduce lactate production | reduce lactate production | reduce lactate production | particularly effective | 1 out of 8 |
| N[C@@H](CC(=O)[O-])C(=O)[O-].[Na+].[Na+] [sodium aspartate, Sodium Aspartate] | reduce lactate production | reduce lactate production | reduce lactate production | particularly effective | – |
| NC(=O)C(=O)[O-].[Na+] [Sodium oxamate] | reduce lactate production | reduce lactate production | reduce lactate production | – | 1 out of 8 |
| Cc1ncc(COP(=O)(O)O)c(C=O)c1O [PLP, pyridoxal 5′-phosphate] | reduce lactate production | reduce lactate production | reduce lactate production | – | – |
| N#Cc1cc(NC(=O)C(=O)O)c(Cl)c(NC(=O)C(=O)O)c1.NC(CO)(CO)CO.NC(CO)(CO)CO [Lodoxamide tromethamine] | – | reduce lactate production | – | – | – |
